Data as given in patent US20250381307A1, “RETRO-AAV AND USE IN TREATING NEURODEGENERATIVE DISEASES” (priority 2023, published 2025).

Key:
hM3Dq or rM3Ds = experiment: Locomotion test in macaques with nigral hM3Dq or rM3Ds AAV after CNO; format: in vivo
Method: To guide the virus injection in SNr, a guide grid of multiple holes spaced by 1 mm was installed on each subject vertically above the SN. By filling vitamin E in these holes, the accurate coordinates for injection could be obtained from the T1-weighted MRI images (3T Tim Trio scanner, Siemens). Virus injections were performed in nine sites covering the whole SNr, and a total volume of 27 μL virus was unilaterally injected in the right SNr at the speed of 300 nL/min.
The locomotion tests for monkeys were conducted in a custom-made observation cage (100 cm×100 cm×100 cm). The top and front of the cage were made of toughened glass in order to gain a clear view for behavioral recording. Monkeys were habituated to the observation cage by placing them inside for 30 minutes on three separate days.
For monkeys injected with AAV8R12-G88P3-HA-hM3Dq, CNO was intracranially infused into the dorsomedial caudate through the recording chamber. To infuse while the animal was awake, the monkey was trained to sit in a primate chair specially designed with its head fixed to the primate chair by a mask made of thermoplastic materials. Injections were conducted through a 33-Gauge needle connected to a 250 μL syringe via a polyethylene pipe (Hamilton, Neuros). […] The needle was held for 5 minutes for drug diffusion before retraction. For monkeys injected with AAV8R12-G88P7-rM3Ds-2A-EYFP, CNO was infused via intramuscular injection (10 mg/kg). […] Videos capturing the subjects' behavior were recorded for at least 90 minutes. Animal behaviors from 30-90 minutes after saline/CNO infusion were further analyzed and quantified.
For rotation analysis, only movements that occurred lower than 30 cm on the z-axis were counted. To determine the direction of the rotation, we first computed the center for the rotation data in the x-y plane as (x0, y0) by averaging all data points, and then we computed the angle relative to (x0, y0) for each time point by the following formula:
where θi represents the rotating angle at time i, and (xi, yi) represents the x-y coordinate at time i. We then calculated the change of rotating angle as Δθi=θi−θi-1. For right nigral injections, when Δθ<0, the direction of the rotation was anticlockwise and was labeled as a contraversive rotation. When Δθ>0, the direction of the rotation was clockwise and was labeled as an ipsiversive rotation. The raw data were analyzed and plotted through a custom R package. Code is available on Github (github.com/chenyef/PD_ana/blob/main/Behavior_ana.txt).

rM3Ds = biological target: T1, rM3Ds (Rattus norvegicus, UniProt P08483, A177S/A238G/A489L/DEL261-437/DEL441-478/E258S/I253V/I483M/INS256[…]/K178L/K182A/K255R/K484R/K486H/L173F/L482A/M480V/R171S/R176Q/R179M/S481M/T174R/T181R/T257A/Y148C); experiment: In vivo electrophysiological recording in caudate/putamen, rM3Ds macaques, intramuscular CNO; parameters: rM3Ds; 2A-EYFP (C); host or cells: AAV8R12-transduced striatal D1-MSNs of mice and cynomolgus macaques (in vivo and acute slices)
T1 sequence (P08483 with tags, fused parts or gaps Y148C/R171S/L173F/T174R/R176Q/A177S/K178L/R179M/T181R/K182A/A238G/I253V/K255R/INS256[…]/T257A/E258S/DEL261-437/DEL441-478/M480V/S481M/L482A/I483M/K484R/K486H/A489L): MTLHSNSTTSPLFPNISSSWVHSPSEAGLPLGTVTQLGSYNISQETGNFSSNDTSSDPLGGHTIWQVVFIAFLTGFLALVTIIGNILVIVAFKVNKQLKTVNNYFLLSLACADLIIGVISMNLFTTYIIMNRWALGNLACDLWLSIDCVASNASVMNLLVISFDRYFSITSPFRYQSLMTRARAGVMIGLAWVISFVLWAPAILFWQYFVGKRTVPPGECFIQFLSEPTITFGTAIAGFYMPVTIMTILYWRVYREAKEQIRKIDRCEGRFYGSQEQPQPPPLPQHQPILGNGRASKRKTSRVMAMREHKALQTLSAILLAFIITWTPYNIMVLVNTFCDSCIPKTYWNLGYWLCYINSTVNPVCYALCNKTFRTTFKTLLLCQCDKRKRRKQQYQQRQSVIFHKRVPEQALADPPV
Method: Electrophysiological recording was performed through a recording chamber while the monkey was anesthetized. Neural responses were recorded by a 16-channel linear probe (Plexon Inc, Uprobe) driven by a mechanical microdrive (Alpha Omega, FlexMT). Signals were passed through a head stage (Plexon Inc, HST/16V-G20 LN) and then split and filtered between 300 Hz and 5 kHz to identify spiking activity with an amplifier system (Plexon Inc, OmniPlex). Detected spikes were then sorted by commercially available software (Plexon Inc, Offline Sorter) for further analysis. To quantify the effect of CNO/DCZ injection, neural activity was recorded for 60 minutes following CNO/DCZ injection. The response time-course for each channel was obtained by counting the spikes within every 10-minute window and then normalizing to the maximal.
To determine the effect of CNO/DCZ injection on the direction of signal change, we performed Pearson correlation between neural responses and time using the ‘corr’ function in Matlab, which generates the correlation coefficient ‘r’ and significant level ‘p’. A neuron was considered to have “Increased” activity when r>0 and p<0.05; and considered to have “Decreased” activity when r<0 and p<0.05. Otherwise, neurons were considered to be “Unchanged” in their neural activities. The responses of all increased neurons were then averaged after being normalized by the maximal response (Crowe et al., 2014; Dai and Wang, 2018; Hirokawa et al., 2019) following CNO/DCZ injection, and then plotted as a function of time to generate the normalized population response.
To enable in-vivo verification of the strategy via an opto-tagging approach, AAV virus encoding opsin ChR2 (AAV9-EF1α-DIO-ChR2-EYFP) was injected into the striatum with simultaneous nigral infusion of a retrograde AAV encoding Cre and rM3Ds (AAV8R12-G88P7-HA-rM3Ds-2A-Cre). A total volume of 27 μl (3 μl×9 sites) and 30 μl (3 μl×10 sites) were injected in the SNr and the striatum, respectively. A recording chamber was implanted above the striatum to allow optical stimulation and electrophysiological recording.
Optogenetic verification was conducted six weeks after virus injections. A 16-channel linear probe with an embedded optic fiber (Plexon Inc., Uprobe) was used to deliver light stimulation and record neural responses. A mechanical Microdrive (FlexMT, Alpha Omega, Nazareth, Israel) was used to mount and drive the probe. A blue laser (473 nm, Changchun New Industries Tech, MBL-III-473) was used to generate light stimulation, which was controlled by a DAQ board (National Instruments, PCIe-6321) through the MonkeyLogic toolbox (NIMH version).
Light pulses of 40 Hz that last for 500 ms were used to probe neurons' responses to optical stimulation. […] Responses from these optically identified cells were grouped to generate the normalized population response as a function of time.

C[N+]1([O-])CCN(C2=Nc3cc(Cl)ccc3Nc3ccccc32)CC1 [CNO, clozapine N-oxide]
muscle tone by electromyogram recordings (hM3Dq or rM3Ds; following CNO infusions): an increase in the muscle tone of the contralateral biceps brachii | contraversive rotations (FIG. 10C) (hM3Dq or rM3Ds; intracranial (hM3Dq) or systemic (rM3Ds) CNO, n=4 monkeys, mean±SEM, saline 1.004±0.2667): 6.649±1.662 | velocity of ipsiversive rotations (FIG. 10H) (hM3Dq or rM3Ds; n=4 monkeys, saline 37.43±3.264, not significant): 41.37±6.566 | speed during contraversive rotations (FIG. 10G) (hM3Dq or rM3Ds; n=4 monkeys, saline 38.42±5.465): 46.98±6.669 | time in the top portion of the observing cage (FIG. 10D) (hM3Dq or rM3Ds; n=4 monkeys, saline 68.42±10.7): 33.74±2.641 | total distance (FIG. 10F) (hM3Dq or rM3Ds; n=4 monkeys, saline 71.53±15.4, not significant): 97.37±19.41 | immobile time (FIG. 10E) (hM3Dq or rM3Ds; n=4 monkeys, saline 107.1±2.322, not significant): 89.13±8.379 | rotations 2.5 years after the nigral injections (hM3Dq or rM3Ds; systemic CNO, unilateral AAV8R12-G88P7-rM3Ds-2A-EYFP): increased contraversive rotations | caudate/putamen cells activated (FIG. 12N) (rM3Ds; 38 total cells, saline 20%): 50% | caudate/putamen cells unchanged (FIG. 12N) (rM3Ds; 38 total cells, saline 26.7%): 36.8% | caudate/putamen cells inactivated (FIG. 12N) (rM3Ds; 38 total cells, saline 53.3%): 13.2% | neuronal activity of opto-tagged retrogradely labeled D1-MSNs (rM3Ds; AAV8R12-G88P7-HA-rM3Ds-2A-Cre plus AAV9-EF1α-DIO-ChR2-EYFP, anesthetized macaques): effectively induced an increase of neuronal activity | caudate cells activated (FIG. 12F) (rM3Ds; monkey CM048, 38 cells): 65.8% | caudate cells inactivated (FIG. 12F) (rM3Ds; monkey CM048, 38 cells): 7.9% | caudate cells unchanged (FIG. 12F) (rM3Ds; monkey CM048, 38 cells): 26.3%
